Data taken from patent US8758746B2, “Fertilization modulation compounds and process for implementing them” (Universite Joseph Fourier, priority 2009, dated 2014).
Entries after “also recorded” stand apart in the source; their conditions may differ.

How the values were obtained:
Sperm cells [1] = test: Electron microscopy of sPLA2-induced acrosome reaction; type: cell-based, mouse; conditions: uncapacitated sperm, incubated 10 min (200 nM sPLA2)
Method: Sperm cells were fixed with 2.5% glutaraldehyde in 0.1 M cacodylate buffer pH 7.4 during 2 hours at room temperature. Cells were then washed with buffer and post fixed with 1% Osmium tetroxyde in the same buffer during 1 hour at 4° C. After extensive washing with water cells were then stained with 0.5% uranile acetate pH 4 overnight at 4° C. Cells were then dehydrated through graded alcohol (30%-60%-90%-100%-100%-100%) and infiltrate with a mix of 1/1 epon/alcohol 100% during 1 hour before several bath of fresh epon (Flukka) during 3 hours. Finally, cells were centrifugated and immersed in fresh Epon and polymerised during 3 days at 60° C. Ultrathin sections of the cell pellet were cut with an ultramicrotome (Leica). Sections were post-stained with 4% uranile acetate and 1% lead citrate before being observed in an electron microscope at 80 kV (JEOL 1200EX).
It was important to check with electron microscopy (EM) that sPLA2 induced a morphologically normal acrosome reaction. The morphological criteria by which an acrosome reaction is evaluated to be normal are relatively limited: first, the outer acrosomal membrane should present vesiculation, second, the plasma membrane should fuse with the outer acrosomal membrane and present a characteristic double hair pin shape at the base of the acrosome (Green, D. P. (1978) The induction of the acrosome reaction in guinea-pig sperm by the divalent metal cation ionophore A23187. J. Cell Sci., 32:137-51.:137-151.)
For these experiments, uncapacitated sperm was used in order to reduce the contribution of spontaneous AR and 200 nM sPLA2 to get maximum sPLA2-induced AR. Sperm were incubated 10 min with mGX sPLA2 or the calcium ionophore A23187 and then fixed. In the presence of A23187, all acrosome-reacted sperm presented complete AR, with the 3 morphological criteria, as described above.

Sperm cells [2] = test: Detection of mGX sPLA2 released from sperm cells (TR-FIA); type: cell-based, mouse; conditions: 90 min capacitation in 2% BSA, A23187 (5 μM) during the last 30 min
Method: Sperm cells from 4 caudae epididymes of mGX sPLA2 mice were allowed to swim for 15 min at 37° C. in 2.5 ml of M2 medium. Aliquots of 500 μl of sperm cells were then diluted in 4.5 ml of M16 medium containing 2% fatty acid free BSA and further incubated at 37° C. for 0, 45 and 90 min. In some assays, A23187 Ca2+ ionophore (5 μM) was added after the first 60 min of incubation and sperm cells were incubated for an additional 30 min. After incubation, sperm cells were spun down for 8 min at 1,200 rpm, and supernatants and cell pellets were flash frozen in liquid nitrogen and stored at −80° C. mGX sPLA2 protein expression and enzymatic activity were analyzed on crude cell supernatants and cell pellets after resuspension in 500 μl of M16 medium containing a cocktail of protease inhibitors (Complete inhibitor set, Roche Biochemicals) and lysis with a Branson 350 Sonifier Cell disrupter. […] Briefly, 5 to 50 μl of cell lysates or supernatants were incubated for 60 min in 300 μl of sPLA2 activity buffer (0.1 M Tris pH 8.0, 10 mM CaCl2, and 0.1% bovine serum albumin containing 100,000 DPM of [3H]oleate-radiolabeled E. coli membranes. Reactions were stopped by addition of 300 μl of stop buffer (0.1 M EDTA pH 8.0 and 0.1% fatty acid free bovine serum Albumin); mixtures were centrifuged at 10,000 g for 5 min, and the supernatants containing released [^3H]oleate were counted.

CNc1ccc2oc(C[C@H]3O[C@@]4(CC[C@H]3C)O[C@H]([C@H](C)C(=O)c3ccc[nH]3)[C@H](C)C[C@H]4C)nc2c1C(=O)O [A23187]
morphology of induced acrosome reaction (electron microscopy) (Sperm cells [1]): complete AR
mGX level in the capacitation medium (TRFIA) (Sperm cells [2]): two fold increase; also recorded: doubled
